Assay results taken from US5340806A, “Composition containing organogermanium compound and immunity adjusting agent comprising the composition” (Sanwa Kagaku Kenkyusho Co., Ltd., priority 1984, dated 1994).
Read-outs that look alike come from different tables or passages of the source.

Columns and labels:
[1] = tested on: NZB/W F1 mouse lymphocytes; experiment: Antibody production in culture system of NZB/W F1 mouse lymphocytes; assay type: cell-based, NZB/W F1 male mice; conditions: 1 to 2 μg/ml; FIG. 10a
[2] = tested on: HIV (Human Immunodeficiency Virus); assay type: in vivo; conditions: for OKT4/8 ratio: before 0.36±0.03; for OKT4-value: before 463±64/μl
Method: Effects of the organogermanium compound are checked by giving the capsule obtained in Pharmaceutical Composition Preparing Example 7 to 6 patients infected by HIV (Human Immunodeficiency Virus), who are male hemophiliacs (Age: 6 to 22 years old) recognized as asymptomatic carriers, and among them 5 patients were positive to HIV and 1 patient was negative to HIV.
To each patient, the capsule was given in a dose of 80 mg/day for the patients of 10 years old or over and 40 mg/1 day for the patients less than 10 years old, for 9 months. The number of blood lymphocytes, OKT4 -value, OKT8 -value and OKT4/8 ratio, as well as the change in the virus marker (HIV, HIV antigen and HIV antibody) in blood of the patients were monitored. The separation of the HIV was carried out in accordance with the CDC (Communicable Disease Center) method, and the measurement of the HIV antigen was carried out using the Western blotting method.

[3] = tested on: spleen cells (PFC), Sarcoma 180 cancered mice; experiment: Antibody production ability in cancered mouse (spleen cell PFC); assay type: in vivo, ICR male mice; conditions: oral for 5 days, depending on dosing amount; FIG. 9
Method: 2×10^6 cells of a mouse tumor cell (Sarcoma 180) were implanted under the skin of a side part of ICR male mice to form a solid cancer. The organogermanium compound (Compound No. 1 in Table 1) dissolved in 4% cattle serum albumin solution was orally dosed to the cancered mice for 5 days, after 9 days had elapsed from the implantation, 2×10^8 corpuscles of SRBC were injected in a tail vein of the mice for sensitization. After 4 days from the sensitization, spleen cells were extracted to measure of PFC therein, which was used as an index of the antibody productivity.

[4] = tested on: chronic non A non B hepatitis; assay type: in vivo, human patients; conditions: 60 mg/day, 12 weeks
Source text: (§1) Utility or effectiveness of the organogermanium compound is checked in comparison with that of a placebo as a control. Interferons have widely been accepted as drugs for curing chronic hepatitis, but those are injectionally dosed. On the contrary, the organogermanium compound is orally dosed. In recent years, some oral medicines for curing liver diseases have been developed and the effectiveness thereof has been evaluated by using a placebo as its control. Therefore, the "placebo" is selected as the control for the evaluation of the organogermanium compound in question. (b) To patients with non A non B hepatitis: 60 mg/day/body. Experiment period of time was set for 16 weeks for the patients with chronic B hepatitis and for 12 weeks for the patients with non A and non B hepatitis.

[5] = tested on: chronic B hepatitis; assay type: in vivo, human patients; conditions: 30 mg/day
Source text: as §1, with “(a)” for “(b)”, “chronic” for “non A non”, “30” for “60”

[6] = tested on: BALB/C mouse lymphocytes; experiment: Antibody production in culture system of BALB/C mouse lymphocytes; assay type: cell-based, BALB/C male mice
[7] = tested on: chronic B hepatitis; assay type: in vivo, human patients
Method: Search on utility or effectiveness of the organogermanium compound on patients who are infected with chronic B hepatitis, or with non A non B hepatitis, and show "positive" to HBe antigen as well as a preferable amount of dose thereof.
The amount of dose has been set as follows, by taking the results given in In Vivo Utilization Example 1 into consideration.
(a) 30 mg/day/body showing most preferable data in effectiveness, and
(b) 15 mg/day/body (half amount).
Experimental period of time was set for 12 weeks.
(a) Examination of liver functions (GOT, GPT, total bilirubin, LDH, y-GTP, and y-globulin), and
(b) Examination with use of HBV marker (HBe-Ag).

Substance: 3-oxygermylpropionic acid [Compound No. 1]
- antibody production ability [1]: an inhibition in antibody production ability
- side-effect in clinical observation ([2]; 9 months): did not show any side-effect
- OKT4/8 ratio ([2]; after 1 month): 0.42±0.02
- OKT4-value ([2]; after 2 months): 549 ± 89 µL⁻¹
- OKT4/8 ratio ([2]; after 3 months): 0.51±0.06
- OKT4/8 ratio ([2]; after 6 months): 0.54±0.05
- OKT4-value ([2]; after 6 months): 629 ± 97 µL⁻¹
- OKT8-value ([2]; after 6 months, before 1303±174/μl): 1154 ± 153 µL⁻¹
- number of lymphocytes ([2]; after 6 months, before 2430±311/μl): 2349 ± 312 µL⁻¹
- HIV disappeared (persons) ([2]; among 5 HIV positive patients, dosage over 6 months): 3 persons
- no change in virus marker (persons) ([2]; among 5 HIV positive patients, over 9 months): 2 persons
- change in OKT4-value ([2]; human, in vivo): a certain increasing tendency
- change in OKT4/8 ratio ([2]; human, in vivo): a slow increase in the ratio
- change in OKT8-value ([2]; human, in vivo): a certain decreasing tendency
- change in number of lymphocytes ([2]; human, in vivo): No noticeable change
- some increase in appetite and body weight (persons) ([2]; human, in vivo): 2 persons
- ability to produce antibodies (PFC) [3]: the ability to produce antibodies recovers towards a normal level
- modification or decomposition in contact with water (control composition (water)): a modification or decomposition occurs
- lapsed time at which disturbance in the absorption spectrum was first observed (control: water in lieu of serum albumin, 25° C): 24 h
- disturbance in the absorption spectrum (control: water, after 60 hours): the disturbance was further increased
- A/G change [4]: .uparw. +
- GOT change [4]: .dwnarw. ***
- GOT, test versus placebo [4]: ** (S>P)
- GPT change [4]: .dwnarw. ***
- GPT, test versus placebo [4]: ** (S>P)
- Serum albumin change [4]: .dwnarw. **
- γ-GPT change [4]: .dwnarw. *
- γ-GPT, test versus placebo [4]: * (S>P)
- Improvement (objective) ([4]; placebo 10%): 8%
- Improvement (sec. judgement) ([4]; placebo 26%): 51%
- Effectiveness (slight or more) ([4]; placebo 29%): 50%
- Improvement (Jud. by Doc.) ([4]; placebo 29%): 56%
- Improvement (general) ([4]; placebo 32%): 59%
- Improvement (self) ([4]; placebo 48%): 50%
- A/G change [5]: .uparw. **
- GOT change [5]: .dwnarw. ***
- GOT, test versus placebo [5]: + (S>P)
- GPT change [5]: .dwnarw. ***
- GPT, test versus placebo [5]: * (S>P)
- Globulin change [5]: .dwnarw. ***
- Globulin, test versus placebo [5]: + (S>P)
- HBe-AG (log conversion) change [5]: .uparw. ***
- HBe-AG (log conversion), test versus placebo [5]: * (S>P)
- HBe-Ab change [5]: .uparw. *
- HBe-Ab, test versus placebo [5]: * (S>P)
- Serum albumin change [5]: .uparw. +
- TTT change [5]: .dwnarw. ***
- Total cholesterol change [5]: .uparw. *
- Total cholesterol, test versus placebo [5]: * (S>P)
- ZTT change [5]: .dwnarw. **
- γ-GPT change [5]: .dwnarw. **
- Improvement (objective) ([5]; 16 weeks, placebo 13%): 10%
- Improvement (HBe Ag-Ab) ([5]; 16 weeks, placebo 25%): 51%
- Improvement (sec. judgement) ([5]; 16 weeks, placebo 29%): 54%
- Improvement (Doc. on duty) ([5]; 16 weeks, placebo 31%): 58%
- Effectiveness (slight or more) ([5]; 16 weeks, placebo 34%): 63%
- Improvement (general) ([5]; 16 weeks, placebo 39%): 66%
- Improvement (self) ([5]; 16 weeks, placebo 40%): 53%
- antibody producing function ([6]; 10 μg/ml, FIG. 10b): an acceleration of the function
- antibody producing function ([6]; 1 to 2 μg/ml): no change
- Effectiveness (slight or more) ([7]; 15 mg/day): 38%
- General judgement: Improvement (slight or more) ([7]; 15 mg/day): 36%
- Effectiveness (slight or more) ([7]; 30 mg/day): 60%
- General judgement: Improvement (slight or more) ([7]; 30 mg/day): 62%
- GOT change ([7]; 30 mg/day, 12 weeks): .dwnarw. ***
- GPT change ([7]; 30 mg/day, 12 weeks): .dwnarw. ***
- HBe-Ag (log conversion) change ([7]; 30 mg/day, 12 weeks): .dwnarw. +
- LDH change ([7]; 30 mg/day, 12 weeks): .dwnarw. *
